Experimental data: patent US20100099198A1 (priority 2008, published 2010)

Target: (WT)7 αHL protein pore (Staphylococcus aureus, UniProt P09616)
Conditions: pH 7.5

Sequence of (WT)7 αHL protein pore (P09616 27-319 limits assumed): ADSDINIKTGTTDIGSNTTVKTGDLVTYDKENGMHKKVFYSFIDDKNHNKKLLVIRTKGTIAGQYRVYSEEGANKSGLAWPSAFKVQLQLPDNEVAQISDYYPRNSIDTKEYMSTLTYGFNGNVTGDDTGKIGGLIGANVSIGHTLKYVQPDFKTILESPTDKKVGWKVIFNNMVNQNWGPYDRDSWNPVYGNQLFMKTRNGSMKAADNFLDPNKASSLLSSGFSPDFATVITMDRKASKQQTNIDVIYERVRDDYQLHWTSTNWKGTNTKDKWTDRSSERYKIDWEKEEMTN

## Y-Y-Y-Y-Y-Y [Y6]
  dwell time: 1.2 ms
